Tested on: TEAD-dependent transcription
Assay: TEAD-dependent transcription cell-based reporter assay (MSTO-211H+12XGTIIC luciferase)
Design: species or system human
Settings: Homo sapiens; MSTO-211H+12XGTIIC reporter cells, 24 hours compound incubation, luminescence normalized to viability; read-out: MSTO-211H GMean IC50 (uM) Cell Assay Reporter Cell Variant: TEAD
Text: The human mesothelioma cell line MSTO-211H was stably transfected with a pGL4.21 plasmid containing a synthetic promoter with 12 copies of the GTIIC TEAD response element that drives the expression of a luciferase reporter gene^1 using Lipofectamine transfection reagent (Thermo Fisher). Transfected cells were selected using puromycin and single cell clones expressing this construct (referred to as MSTO-211H+12XGTIIC) were generated by limiting dilution. MSTO-211H cells was characterized by genetic alterations in key components of the Hippo pathway^2, resulting in up-regulation of YAP/TEAD-mediated transcription. […] To evaluate TEAD inhibitors, the MSTO-211H+12XGTIIC cell line was seeded in a 96-well plate in 50 μL of culture media at 1×10^4 cells per well and incubated at 37° C. overnight. Serial dilutions of compounds (in total volume of 50 μL of culture media) were added to the cells and incubated at 37° C. for 24 hours. Each plate included cells treated with DMSO as high controls and cells treated with 20 μM of the reference compound K-975 (a known TEAD inhibitor)^3 as low controls. Cell viability was assayed by the addition of 25 μL of CellTiter-Fluor reagent (Promega) followed by a 30-minute incubation at 37° C. and quantification of the fluorescence signal (Ex400/Em505). Subsequently, luciferase expression was assayed by the addition of 25 μL of ONE-Glo reagent (Promega) followed by a 10-minute incubation at room temperature and quantification of the luminescence signal. The luminescence signal was normalized to the fluorescence signal to correct for any loss in cell viability over the 24-hour compound incubation period. The percentage of inhibition of normalized luminescence signal, indicative of compound-mediated inhibition of TEAD-dependent transcription, at individual compound concentrations relative to high and low controls was calculated. The data were analyzed by using nonlinear regression to generate IC50 values for individual compounds.

`C[C@@H](NC(=O)c1cccc(N)n1)C(=O)N1CCc2ccc(-c3ccc(C(F)(F)F)cc3)cc2C1` [O-0133, (R)-6-amino-N-(1-oxo-(7-(4-(trifluoromethyl)phenyl)-3,4-dihydroisoquinolin-2(1H)-yl)propan-2-yl)picolinamide] and `C[C@@H](NC(=O)c1ccccn1)C(=O)N1CCc2ccc(-c3ccc(C(F)(F)F)cc3)cc2C1` [O-0177, (R)-N-(1-oxo-1-(7-(4-(trifluoromethyl)phenyl)-3,4-dihydroisoquinolin-2(1H)-yl)propan-2-yl)picolinamide] fall in the same range of IC50: 0.001 to 10 µM for the first, 0.001 to 10 µM for the second.

`CC(C)C[C@@H](NS(C)(=O)=O)C(=O)N1CCc2c(cccc2-c2ccc(C(F)(F)F)cc2)C1` [O-0139, (R)-N-(4-methyl-1-oxo-1-(5-(4-(trifluoromethyl)phenyl)-3,4-dihydroisoquinolin-2(1H)-yl)pentan-2-yl)methanesulfonamide] and `C[C@@H](NS(C)(=O)=O)C(=O)N1CCc2c(cccc2-c2ccc(C(F)(F)F)cc2)C1` [O-0185, (R)-N-(1-oxo-1-(5-(4-(trifluoromethyl)phenyl)-3,4-dihydroisoquinolin-2(1H)-yl)propan-2-yl)methanesulfonamide] fall in the same range of IC50: 0.001 to 10 µM for the first, 0.001 to 10 µM for the second.

`C[C@@H](Nc1ccccn1)C(=O)N1CCc2cc(-c3ccc(C(F)(F)F)cc3)ccc2C1` [O-0145, (R)-2-(pyridin-2-ylamino)-1-(6-(4-(trifluoromethyl)phenyl)-3,4-dihydroisoquinolin-2(1H)-yl)propan-1-one] and `C[C@@H](N)C(=O)N1CCc2cc(-c3ccc(C(F)(F)F)cc3)ccc2C1` [O-0186, (R)-2-amino-1-(6-(4-(trifluoromethyl)phenyl)-3,4-dihydroisoquinolin-2(1H)-yl)propan-1-one] fall in the same range of IC50: 0.001 to 10 µM for the first, 0.001 to 10 µM for the second.

`C[C@@H](NS(C)(=O)=O)C(=O)N1CCc2cc(-c3ccc(C(F)(F)F)cc3)ccc2C1` [O-0161, (R)-N-(1-oxo-1-(6-(4-(trifluoromethyl)phenyl)-3,4-dihydroisoquinolin-2(1H)-yl)propan-2-yl)methanesulfonamide] and `CC(=O)N[C@H](C)C(=O)N1CCc2ccc(-c3ccc(C(F)(F)F)cc3)cc2C1` [O-0182, (R)-N-(1-oxo-1-(7-(4-(trifluoromethyl)phenyl)-3,4-dihydroisoquinolin-2(1H)-yl)propan-2-yl)acetamide] fall in the same range of IC50: 0.001 to 10 µM for the first, 0.001 to 10 µM for the second.

`C[C@@H](N)C(=O)N1CCc2ccc(-c3ccc(C(F)(F)F)cc3)cc2C1` [O-0187, (R)-2-amino-1-(7-(4-(trifluoromethyl)phenyl)-3,4-dihydroisoquinolin-2(1H)-yl)propan-1-one] and `CS(=O)(=O)c1nc(C(=O)N2CCc3ccc(-c4ccc(C(F)(F)F)cc4)cc3C2)c[nH]1` [O-0189, (2-(methylsulfonyl)-1H-imidazol-4-yl)(7-(4-(trifluoromethyl)phenyl)-3,4-dihydroisoquinolin-2(1H)-yl)methanone] fall in the same range of IC50: 0.001 to 10 µM for the first, 0.001 to 10 µM for the second.

First: O=C(c1c[nH]c(C(F)(F)F)n1)N1CCc2ccc(-c3ccc(C(F)(F)F)cc3)cc2C1 [O-0188, (2-(trifluoromethyl)-1H-imidazol-4-yl)(7-(4-(trifluoromethyl)phenyl)-3,4-dihydroisoquinolin-2(1H)-yl)methanone]
Second: O=C(c1c[nH]c(C(F)(F)F)n1)N1CCc2cc(-c3ccc(C(F)(F)F)cc3)ccc2C1 [O-0191, (2-(trifluoromethyl)-1H-imidazol-4-yl)(6-(4-(trifluoromethyl)phenyl)-3,4-dihydroisoquinolin-2(1H)-yl)methanone]
The IC50 of the first is higher: 10 to 100 µM for the first, 0.001 to 10 µM for the second. The second is the more potent here.

First: CS(=O)(=O)c1nc(C(=O)N2CCc3cc(-c4ccc(C(F)(F)F)cc4)ccc3C2)c[nH]1 [O-0190, (2-(methylsulfonyl)-1H-imidazol-4-yl)(6-(4-(trifluoromethyl)phenyl)-3,4-dihydroisoquinolin-2(1H)-yl)methanone]
Second: O=C(c1c[nH]c(C(F)(F)F)n1)N1CCc2c(cccc2-c2ccc(C(F)(F)F)cc2)C1 [O-0192, (2-(trifluoromethyl)-1H-imidazol-4-yl)(5-(4-(trifluoromethyl)phenyl)-3,4-dihydroisoquinolin-2(1H)-yl)methanone]
The IC50 of the first is lower: 0.001 to 10 µM for the first, > 100 µM for the second. The first is the more potent here.

— patent US20250376445A1, “COMPOUNDS AND METHODS FOR YAP/TEAD MODULATION AND INDICATIONS THEREFOR” (OPNA BIO SA, priority 2023, published 2025)
